Data as given in ChEMBL document CHEMBL5236624, “Synthesis, Characterization, and Application of Muscarinergic M3 Receptor Ligands Linked to Fluorescent Dyes” (J Med Chem, 2022).
Activity calls are given as the source filed them. The rule behind the calls is not given here.

Columns and labels:
[1] = target: T1, Muscarinic acetylcholine receptor M3 (Homo sapiens, UniProt P20309); experiment: Binding affinity to human muscarinic M3 receptor expressed in CHO cells assessed as binding to cell membrane at 60 nM measured for 60 mins by Hoechst H33342 staining based confocal microscopy; type: cell membranes
Target sequence in this assay (P20309 whole entry, looked up): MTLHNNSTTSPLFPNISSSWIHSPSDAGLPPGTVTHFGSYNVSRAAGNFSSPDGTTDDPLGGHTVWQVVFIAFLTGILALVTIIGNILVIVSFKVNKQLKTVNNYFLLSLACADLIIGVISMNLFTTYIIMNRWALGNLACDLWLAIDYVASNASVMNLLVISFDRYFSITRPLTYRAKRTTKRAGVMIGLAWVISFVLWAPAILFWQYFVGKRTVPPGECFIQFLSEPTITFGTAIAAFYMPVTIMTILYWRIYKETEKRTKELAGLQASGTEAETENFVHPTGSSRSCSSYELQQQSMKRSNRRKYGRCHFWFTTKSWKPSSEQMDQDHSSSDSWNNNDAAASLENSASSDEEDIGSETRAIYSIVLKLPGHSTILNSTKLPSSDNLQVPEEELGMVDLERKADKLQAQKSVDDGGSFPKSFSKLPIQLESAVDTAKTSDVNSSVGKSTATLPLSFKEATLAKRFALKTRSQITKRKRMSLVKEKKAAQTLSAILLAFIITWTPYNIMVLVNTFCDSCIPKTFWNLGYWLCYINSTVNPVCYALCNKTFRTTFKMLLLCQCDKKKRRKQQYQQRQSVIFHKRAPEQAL

Homo sapiens [2] = species on record: Homo sapiens; experiment: Selectivity ratio, Ki for displacement of [3H]N-methylscopolamine from human muscarinic M5 receptor expressed in human HEK293T cell membranes to Ki for displacement of [3H]N-methylscopolamine from human muscarinic M3 receptor expressed in human HEK293T cell membranes
[3] = target: T1, Muscarinic acetylcholine receptor M3; experiment: Displacement of [3H]N-methylscopolamine from human muscarinic M3 receptor expressed in human HEK293T cell membranes by radioligand competition binding based analysis; set-up: species or system Cell membrane
Target sequence in this assay (P20309 whole entry): as the sequence (P20309 whole entry, looked up) above

[4] = target: T2, Muscarinic acetylcholine receptor M1 (Homo sapiens, UniProt P11229); experiment: Binding affinity to saturated human muscarinic M1 expressed in CHO cells assessed as dissociation constant incubated for 2 hrs in presence of atropine by flow cytometry; type: cell-based
T2 sequence (P11229 whole entry): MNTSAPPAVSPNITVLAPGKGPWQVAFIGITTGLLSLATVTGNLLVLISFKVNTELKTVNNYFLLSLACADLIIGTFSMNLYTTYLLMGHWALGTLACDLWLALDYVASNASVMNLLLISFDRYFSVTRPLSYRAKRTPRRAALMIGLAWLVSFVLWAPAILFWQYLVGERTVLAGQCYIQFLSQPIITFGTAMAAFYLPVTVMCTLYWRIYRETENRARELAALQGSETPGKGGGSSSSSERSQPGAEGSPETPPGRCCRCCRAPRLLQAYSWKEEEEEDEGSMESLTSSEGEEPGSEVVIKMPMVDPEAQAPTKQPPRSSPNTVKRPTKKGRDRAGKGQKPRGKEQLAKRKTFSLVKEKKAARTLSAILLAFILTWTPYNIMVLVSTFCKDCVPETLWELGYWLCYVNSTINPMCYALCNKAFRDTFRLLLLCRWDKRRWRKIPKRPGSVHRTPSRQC

Homo sapiens [5] = species on record: Homo sapiens; experiment: Selectivity ratio, Ki for displacement of [3H]N-methylscopolamine from human muscarinic M4 receptor expressed in human HEK293T cell membranes to Ki for displacement of [3H]N-methylscopolamine from human muscarinic M3 receptor expressed in human HEK293T cell membranes
CHO-K1 = experiment: Cytotoxicity against Chinese hamster CHO-K1 cells assessed as reduction in cell viability upto 1 uM by crystal violet staining based multiplate reader analysis; type: toxicity, Cricetulus griseus; conditions: cho-k1, 1 µM
[6] = target: T3, Muscarinic acetylcholine receptor M4 (Homo sapiens, UniProt P08173); experiment: Displacement of [3H]N-methylscopolamine from human muscarinic M4 receptor expressed in human HEK293T cell membranes by radioligand competition binding based analysis; set-up: species or system Cell membrane
T3 sequence (P08173 whole entry): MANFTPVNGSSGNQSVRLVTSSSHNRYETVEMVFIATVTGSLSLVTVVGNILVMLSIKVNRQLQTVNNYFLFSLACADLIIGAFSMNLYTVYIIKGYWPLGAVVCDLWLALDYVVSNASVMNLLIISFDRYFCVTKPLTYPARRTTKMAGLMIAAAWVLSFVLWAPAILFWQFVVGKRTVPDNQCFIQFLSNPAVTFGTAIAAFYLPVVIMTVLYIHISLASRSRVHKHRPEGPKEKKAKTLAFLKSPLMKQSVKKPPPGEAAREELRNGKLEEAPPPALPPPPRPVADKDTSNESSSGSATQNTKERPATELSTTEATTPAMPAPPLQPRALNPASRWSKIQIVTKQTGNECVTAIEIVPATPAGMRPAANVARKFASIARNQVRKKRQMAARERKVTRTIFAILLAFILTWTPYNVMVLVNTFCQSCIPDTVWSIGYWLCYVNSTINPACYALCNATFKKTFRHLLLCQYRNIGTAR

[7] = target: T1, Muscarinic acetylcholine receptor M3; experiment: Binding affinity to human muscarinic M3 receptor expressed in CHO cells assessed as binding to cell membrane at 100 nM measured for 60 mins in presence of atropine by Hoechst H33342 staining based confocal microscopy; type: cell membranes
Target sequence in this assay (P20309 whole entry, looked up): as the sequence (P20309 whole entry, looked up) above

[8] = target: T2, Muscarinic acetylcholine receptor M1; experiment: Binding affinity to saturated human muscarinic M1 expressed in CHO cells assessed as dissociation constant incubated for 2 hrs by flow cytometry; type: cell-based
[9] = target: T4, Muscarinic acetylcholine receptor M2 (Homo sapiens, UniProt P08172); experiment: Displacement of [3H]N-methylscopolamine from human muscarinic M2 receptor expressed in human HEK293T cell membranes by radioligand competition binding based analysis; set-up: species or system Cell membrane
T4 sequence (P08172 whole entry): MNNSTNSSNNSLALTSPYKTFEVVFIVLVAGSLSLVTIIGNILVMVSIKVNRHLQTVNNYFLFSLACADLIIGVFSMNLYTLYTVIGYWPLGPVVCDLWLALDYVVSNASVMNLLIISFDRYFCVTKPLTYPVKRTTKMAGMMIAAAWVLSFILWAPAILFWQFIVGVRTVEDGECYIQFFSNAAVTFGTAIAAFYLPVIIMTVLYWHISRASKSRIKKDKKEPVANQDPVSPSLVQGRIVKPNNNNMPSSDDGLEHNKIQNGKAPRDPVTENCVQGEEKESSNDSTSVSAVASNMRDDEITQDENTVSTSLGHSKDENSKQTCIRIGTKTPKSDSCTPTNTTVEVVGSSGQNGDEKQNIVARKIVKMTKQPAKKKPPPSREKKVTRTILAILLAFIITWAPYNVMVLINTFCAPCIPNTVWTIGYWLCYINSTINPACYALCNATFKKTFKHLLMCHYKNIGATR

[10] = target: T5, Muscarinic acetylcholine receptor M5 (Homo sapiens, UniProt P08912); experiment: Displacement of [3H]N-methylscopolamine from human muscarinic M5 receptor expressed in human HEK293T cell membranes by radioligand competition binding based analysis; set-up: species or system Cell membrane
T5 sequence (P08912 whole entry): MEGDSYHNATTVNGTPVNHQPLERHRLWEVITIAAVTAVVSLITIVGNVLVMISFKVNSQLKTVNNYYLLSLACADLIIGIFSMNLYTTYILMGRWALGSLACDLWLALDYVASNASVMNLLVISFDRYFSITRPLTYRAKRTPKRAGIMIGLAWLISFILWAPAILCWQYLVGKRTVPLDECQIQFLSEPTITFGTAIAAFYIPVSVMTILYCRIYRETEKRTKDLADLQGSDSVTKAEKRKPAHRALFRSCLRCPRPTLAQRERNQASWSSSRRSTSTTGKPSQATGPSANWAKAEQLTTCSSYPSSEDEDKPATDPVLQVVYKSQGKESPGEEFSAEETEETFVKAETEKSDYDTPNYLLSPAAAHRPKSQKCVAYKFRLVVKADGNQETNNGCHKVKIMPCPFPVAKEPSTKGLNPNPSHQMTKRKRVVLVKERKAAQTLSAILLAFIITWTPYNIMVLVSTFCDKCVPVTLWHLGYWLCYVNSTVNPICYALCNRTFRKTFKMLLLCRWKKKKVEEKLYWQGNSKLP

[11] = target: T1, Muscarinic acetylcholine receptor M3; experiment: Binding affinity to human muscarinic M3 receptor expressed in human HEK293T cells co-expressing beta-arrestin2 assessed as inhibition of carbachol-induced beta-arrestin recruitment preincubated for 30 mins followed by carbachol stimulation and measured after 90 mins by PathHunter assay; type: cell-based
Target sequence in this assay (P20309 whole entry): as the sequence (P20309 whole entry, looked up) above

[12] = target: T1, Muscarinic acetylcholine receptor M3; experiment: Binding affinity to saturated human muscarinic M3 expressed in CHO cells assessed as dissociation constant incubated for 2 hrs in presence of atropine by flow cytometry; type: cell-based
Target sequence in this assay (P20309 whole entry): as the sequence (P20309 whole entry, looked up) above

[13] = target: T1, Muscarinic acetylcholine receptor M3; experiment: Binding affinity to human muscarinic M3 receptor expressed in human HEK293T cells assessed as inhibition of carbachol-induced G-protein signaling by measuring inositol accumulation preincubated for 30 mins followed by carbachol stimulation and measured after 90 mins by HTRF assay; type: cell-based
Target sequence in this assay (P20309 whole entry): as the sequence (P20309 whole entry, looked up) above

[14] = target: T1, Muscarinic acetylcholine receptor M3; experiment: Binding affinity to human muscarinic M3 receptor expressed in CHO cells assessed as binding to cell membrane at 60 nM measured for 60 mins in presence of atropine by Hoechst H33342 staining based confocal microscopy; type: cell membranes
Target sequence in this assay (P20309 whole entry, looked up): as the sequence (P20309 whole entry, looked up) above

[15] = target: T1, Muscarinic acetylcholine receptor M3; experiment: Binding affinity to saturated human muscarinic M3 expressed in CHO cells assessed as dissociation constant incubated for 2 hrs by flow cytometry; type: cell-based
Target sequence in this assay (P20309 whole entry): as the sequence (P20309 whole entry, looked up) above

[16] = target: T1, Muscarinic acetylcholine receptor M3; experiment: Binding affinity to human muscarinic M3 expressed in CHO cells assessed as dissociation rate constant preincubated for 55 mins in dark followed by atropine addition and measured after 1 to 152 mins by flow cytometry; type: cell-based; conditions: time 56-207 min
Target sequence in this assay (P20309 whole entry, looked up): as the sequence (P20309 whole entry, looked up) above

[17] = target: T2, Muscarinic acetylcholine receptor M1; experiment: Displacement of [3H]N-methylscopolamine from human muscarinic M1 receptor expressed in human HEK293T cell membranes by radioligand competition binding based analysis; set-up: species or system Cell membrane
[18] = target: T1, Muscarinic acetylcholine receptor M3; experiment: Binding affinity to human muscarinic M3 expressed in CHO cells assessed as association rate constant incubated for 1 to 75 mins in presence of atropine by flow cytometry; type: cell-based; conditions: time 1-75 min
Target sequence in this assay (P20309 whole entry, looked up): as the sequence (P20309 whole entry, looked up) above

[19] = target: T1, Muscarinic acetylcholine receptor M3; experiment: Binding affinity to human muscarinic M3 receptor expressed in CHO cells assessed as binding to cell membrane at 100 nM measured for 60 mins by Hoechst H33342 staining based confocal microscopy; type: cell membranes
Target sequence in this assay (P20309 whole entry, looked up): as the sequence (P20309 whole entry, looked up) above

[20] = target: T1, Muscarinic acetylcholine receptor M3; experiment: Displacement of tiotropium bromide from human muscarinic M3 receptor expressed in CHO cells incubated for 4 hrs by flow cytometric competition binding assay; type: cell-based
Target sequence in this assay (P20309 whole entry): as the sequence (P20309 whole entry, looked up) above

[21] = target: T1, Muscarinic acetylcholine receptor M3; experiment: Displacement of atropine from human muscarinic M3 receptor expressed in CHO cells incubated for 2 hrs by flow cytometric competition binding assay; type: cell-based
[22] = target: T1, Muscarinic acetylcholine receptor M3; experiment: Binding affinity to human muscarinic M3 expressed in CHO cells assessed as association rate constant incubated for 0.5 to 36 mins in presence of atropine by flow cytometry; type: cell-based; conditions: time lower 0.5 min, time upper […]
[23] = target: T1, Muscarinic acetylcholine receptor M3; experiment: Binding affinity to human muscarinic M3 expressed in CHO cells assessed as dissociation rate constant preincubated for 20 mins in dark followed by atropine addition and measured after 1 to 130 mins by flow cytometry; type: cell-based; conditions: time lower […], time upper 150.0 min

Activity [1] | Ki [3] [nM] | Kd [4] [nM] | Ki [6] [nM] | Activity [7] | Kd [8] [nM] | Ki [9] [nM] | Ki [10] [nM] | IC50 [11] [nM] | Kd [12] [nM] | IC50 [13] [nM] | Activity [14] | Kd [15] [nM] | Ki [17] [nM] | Activity [19] | Ki ([20]; read-out: Ki) [nM] | Ki ([21]; read-out: Ki) [nM] | Compound | Selectivity ratio (Homo sapiens [2]) | Selectivity ratio (Homo sapiens [5]) | Activity (CHO-K1) | other results
Active | 14 | 6.5 | 0.87 | inactive | 6 | 9.6 | 5.5 | 450 | 49.7 | 300 | inactive | 54 | 0.73 | Active | 0.14 | 2.4 | CC1(C)C(/C=C/C=C/C=C2/N(CCCCS(=O)(=O)O)c3ccccc3C2(C)C)=[N+](CCCCCC(=O)NCCCCCCCCN2CCC(OC(=O)Nc3ccc(F)cc3-c3ccc(F)c(Cl)c3)CC2)c2ccc(S(=O)(=O)[O-])cc21 | 0.39 | 0.06 | Non-Toxic | Kdiss [16]: 0.000433 s⁻¹; ka [18]: 0.09 min⁻¹; Ki ([21]; read-out: pKi (converted)): 2.14 nM
Active | 1.2 | 8.3 | 1.4 | inactive | 7.3 | 11 | 7.4 | 430 | 24 | 130 | inactive | 23 | 1.5 | Active | 0.15 | 2.3 | CN(C)c1ccc2c(-c3ccc(-c4cn(CCCCCn5cc(CCCCCCN6CCC(COC(=O)Nc7ccc(F)cc7-c7ccc(F)c(Cl)c7)CC6)nn5)nn4)cc3C(=O)[O-])c3ccc(=[N+](C)C)cc-3oc2c1 | 6.2 | 1.2 | Non-Toxic | ka [22]: 0.37 min⁻¹; Kdiss [23]: 0.0004 s⁻¹; Ki ([20]; read-out: pKi (converted)): 0.132 nM; Ki ([21]; read-out: pKi (converted)): 2.19 nM
